{
  "source": "ChEMBL document CHEMBL1268995",
  "about": "“The structure and antimalarial activity of dispiro-1,2,4,5-tetraoxanes derived from (+)-dihydrocarvone” (Bioorg Med Chem Lett, 2010)",
  "key": {"Plasmodium berghei": {"tested_on": "Plasmodium berghei", "assay": "Antimalarial activity against Plasmodium berghei infected in NMRI mice (Mus musculus) assessed as reduction in parasitaemia at 100 mg/kg, perorally administered 1 day post-infection measured 3 day post-infection", "type": "functional", "design": "scale not given: the % may be the effect or the level left", "settings": "route oral"}, "Plasmodium falciparum [1]": {"tested_on": "Plasmodium falciparum", "assay": "Antimalarial activity against chloroquine-resistant Plasmodium falciparum K1", "type": "functional, organism-based"}, "Plasmodium falciparum [2]": {"tested_on": "Plasmodium falciparum", "assay": "Antimalarial activity against chloroquine-sensitive Plasmodium falciparum NF54", "type": "functional, organism-based"}, "[3]": {"assay": "Partition coefficient, log P of the compound", "type": "physicochemical", "settings": "octanol/water"}},
  "data": [
    {"smiles": "CC(N)[C@@H]1CC[C@@H](C)C2(C1)OOC1(C[C@H](C(C)N)CC[C@H]1C)OO2", "note": "(stereo partly specified)", "values": [
      {"measurement": "Activity", "setting": "Plasmodium berghei", "value": 99.1, "unit": "%"},
      {"measurement": "IC50", "setting": "Plasmodium falciparum [1]", "value": 54, "unit": "ng/mL"},
      {"measurement": "IC50", "setting": "Plasmodium falciparum [2]", "value": 82, "unit": "ng/mL"}
    ]},
    {"smiles": "CC(=O)[C@@H]1CC[C@@H](C)C2(C1)OOC1(C[C@H](C(C)=O)CC[C@H]1C)OO2", "note": "(stereo partly specified)", "values": [
      {"measurement": "Activity", "setting": "Plasmodium berghei", "value": 63, "unit": "%"},
      {"measurement": "IC50", "setting": "Plasmodium falciparum [1]", "value": 2.1, "unit": "ng/mL"},
      {"measurement": "IC50", "setting": "Plasmodium falciparum [2]", "value": 2.1, "unit": "ng/mL"}
    ]},
    {"smiles": "C/C(=N\\O)[C@@H]1CC[C@@H](C)C2(C1)OOC1(C[C@H](/C(C)=N/O)CC[C@H]1C)OO2", "note": "(stereo partly specified)", "values": [
      {"measurement": "Activity", "setting": "Plasmodium berghei", "value": "<40", "unit": "%"},
      {"measurement": "IC50", "setting": "Plasmodium falciparum [1]", "value": 30, "unit": "ng/mL"},
      {"measurement": "IC50", "setting": "Plasmodium falciparum [2]", "value": 18, "unit": "ng/mL"}
    ]},
    {"smiles": "C[C@@H]1CC[C@H]2[C@@H](C)C(=O)O[C@@H]3O[C@@]4(C)CC[C@@H]1[C@]32OO4", "note": "[ARTEMISININ]", "values": [
      {"measurement": "Activity", "setting": "Plasmodium berghei", "value": 98, "unit": "%"},
      {"measurement": "IC50", "setting": "Plasmodium falciparum [2]", "value": 3.4, "unit": "ng/mL"},
      {"measurement": "logP", "setting": "[3]", "value": 2.2}
    ]},
    {"smiles": "C=C(C)[C@@H]1CC[C@@H](C)C2(C1)OOC1(C[C@H](C(=C)C)CC[C@H]1C)OO2", "note": "(stereo partly specified)", "values": [
      {"measurement": "Activity", "setting": "Plasmodium berghei", "value": 99.9, "unit": "%"},
      {"measurement": "IC50", "setting": "Plasmodium falciparum [1]", "value": 6.9, "unit": "ng/mL"},
      {"measurement": "IC50", "setting": "Plasmodium falciparum [2]", "value": 6.6, "unit": "ng/mL"}
    ]},
    {"smiles": "C[C@@H]1CCCCC12OOC1(CCCC[C@@H]1C)OO2", "note": "(stereo partly specified) [WR-148999]", "values": [
      {"measurement": "Activity", "setting": "Plasmodium berghei", "value": 99.7, "unit": "%"}
    ]}
  ]
}
